Values of other authors as cited in patent US20060093571A1, “Hair and skin protecting compositions based on esters or ethers of betulin” (priority 2004, published 2006).

How the values were obtained:
elastase = biological target: T1, elastase (Homo sapiens, UniProt P08246); details: known from literature
T1 sequence (P08246 30-247 limits assumed): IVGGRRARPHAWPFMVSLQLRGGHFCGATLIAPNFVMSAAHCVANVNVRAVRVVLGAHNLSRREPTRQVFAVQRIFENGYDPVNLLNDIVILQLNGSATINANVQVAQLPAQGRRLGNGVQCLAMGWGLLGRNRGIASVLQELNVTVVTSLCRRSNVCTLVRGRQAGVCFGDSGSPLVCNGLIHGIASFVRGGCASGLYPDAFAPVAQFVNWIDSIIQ

Compound	inhibition of enzymatic activity of elastase (elastase)	solubility in polar and non-polar solvents
C[C@H]1[C@H](C)CC[C@]2(C(=O)O)CC[C@]3(C)C(=CC[C@@H]4[C@@]5(C)CC[C@H](O)C(C)(C)[C@@H]5CC[C@]43C)[C@H]12 [ursolic acid]	inhibit	poor solubility
C=C(C)[C@@H]1CC[C@]2(C(=O)O)CC[C@]3(C)[C@H](CC[C@@H]4[C@@]5(C)CC[C@H](O)C(C)(C)[C@@H]5CC[C@]43C)[C@@H]12 [betulinic acid]	–	poor solubility
C=C(C)[C@@H]1CC[C@]2(CO)CC[C@]3(C)[C@H](CC[C@@H]4[C@@]5(C)CC[C@H](O)C(C)(C)[C@@H]5CC[C@]43C)[C@@H]12 [Betulin]	inhibit	poor solubility
CC1(C)CC[C@]2(C(=O)O)CC[C@]3(C)C(=CC[C@@H]4[C@@]5(C)CC[C@H](O)C(C)(C)[C@@H]5CC[C@]43C)[C@@H]2C1 [oleanolic acid]	inhibit	poor solubility
